Here are results for 47 compounds from US20240368096A1 (Enanta Pharmaceuticals, Inc., priority 2022, published 2024).

Broadly, the EC50 is the concentration that produces a half-maximal response.

For this test, the system named is HBV. Description: HBV infection in HepG2-NTCP cells (HBeAg AlphaLISA in supernatants). The class given is cell-based. To be noted: Hepatitis B virus, 192 h; HBV infection of HepG2-NTCP cells; HBeAg in supernatants at day 8 post infection; read-out: Cellular EC50. The method in brief: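 HepG2-NTCP A3 cells were pre-incubated 2 h with 3-fold serially diluted compounds, then infected with HBV at 2000 GE/cell with 4% PEG (0.5% DMSO final). After washing on day 1, cells stayed in 2.5% DMSO medium; supernatant HBeAg measured by AlphaLISA on day 8, EC50 versus DMSO controls.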
For the compound `CN1[C@H](C2CCCCC2)CN(c2ccccc2)c2cc(C3CC3)c(-c3cc(F)c(F)c(C(=O)O)c3)cc2S1(=O)=O` [Example 583, (R)-5-(3-cyclohexyl-7-cyclopropyl-2-methyl-1,1-dioxido-5-phenyl-2,3,4,5-tetrahydrobenzo[f][1,2,5]thiadiazepin-8-yl)-2,3-difluorobenzoic acid], the EC50 was 100 to 1000 nM. The figure for `CSc1cc2c(cc1-c1cccc(C(=O)O)c1)S(=O)(=O)N1C[C@H](C(F)(F)F)C[C@@H]1CN2c1ccccc1` [Example 23] is above 1000 nM. The value for `O=C(O)c1cc(-c2cc3c(cc2F)N(c2ccccc2)C[C@H]2C[C@@H](C(F)(F)F)CN2S3(=O)=O)ccc1F` [Example 10] was above 1000 nM. In the case of `CC(C)C[C@@H]1CN(c2ccccc2)c2cc(Cl)c(-c3cccc(S(=O)(=O)O)c3)cc2S(=O)(=O)N1C` [Example 230], the 50% effective concentration (EC50) lay in the range of 100 to 1000 nM. The value for `CC(C)CC1CN(C2CCC2)c2cc(Cl)c(-c3cccc(C(=O)O)c3)cc2S(=O)(=O)N1C` (centres unmarked) [Example 328] was 100 to 1000 nM; that for `CN1[C@H](C2CCCCC2)CN(c2ccccc2)c2cc(OCc3ccsc3)c(-c3ccc(NC(=O)OCc4ccccc4)c(C(=O)O)c3)cc2S1(=O)=O` [Example 481] was below 100 nM; that for `CCCCC1CN(c2ccccc2)c2cc(C(F)(F)F)c(-c3ccc(F)c(C(=O)O)c3)cc2S(=O)(=O)N1C` (centres unmarked) [Example 568, 5-(3-butyl-2-methyl-1,1-dioxido-5-phenyl-7-(trifluoromethyl)-2,3,4,5-tetrahydrobenzo[f][1,2,5]thiadiazepin-8-yl)-2-fluorobenzoic acid] was 100 to 1000 nM. Turning to `CN1[C@H](C2CCCCC2)CN(c2ccccc2)c2cc(OCC3CN(C(=O)OC(C)(C)C)C3)c(-c3cc(F)c(C(=O)O)s3)cc2S1(=O)=O` [Example 509], the EC50 is below 100 nM. The figure for `CC(C)C[C@@H]1CN(c2ccccc2)c2cc(OC3CC4(COC4)C3)c(-c3ccc(F)c(C(=O)O)c3)cc2S(=O)(=O)N1C` [Example 444] is 100 to 1000 nM; for `CC(C)C[C@@H]1CN(c2ccccc2)c2cc(Cl)c(-c3ccc(C(F)F)c(C(=O)O)c3)cc2S(=O)(=O)N1C` [Example 165] it is 100 to 1000 nM; for `CC(C)C[C@@H]1CN(c2ccccc2)c2cc(OCCc3ccoc3)c(-c3ccc(F)c(C(=O)O)c3)cc2S(=O)(=O)N1C` [Example 461] it is below 100 nM. The figure for `CSc1cc2c(cc1-c1cncc(C(=O)O)c1)S(=O)(=O)N1CC(C)(C)CC1CN2c1ccccc1` (centres unmarked) [Example 21] is 100 to 1000 nM; for `CN1[C@H](C2CCCCC2)CN(c2ccccc2)c2cc(Cl)c(-c3ccc4c(c3)C(=O)NC4=O)cc2S1(=O)=O` [Example 197] it is above 1000 nM. The value for `COCCOC(=O)Nc1ccc(-c2cc3c(cc2OCCOC)N(c2ccccc2)C[C@@H](C2CCCCC2)N(C)S3(=O)=O)cc1C(=O)O` [Example 479, (R)-5-(3-cyclohexyl-7-(2-methoxyethoxy)-2-methyl-1,1-dioxido-5-phenyl-2,3,4,5-tetrahydrobenzo[f][1,2,5]thiadiazepin-8-yl)-2-(((2-methoxyethoxy)carbonyl)amino)benzoic acid] was below 100 nM; that for `CN1[C@H](C2CCCCC2)CN(c2ccccc2)c2cc(O[C@@H]3CCN(C(=O)OC(C)(C)C)C3)c(-c3ccc(F)c(C(=O)O)c3)cc2S1(=O)=O` [Example 397] was below 100 nM. With `C[C@H](OCc1ccccc1)[C@@H]1CN(c2ccccc2)c2cc(Cl)c(-c3ccc(F)c(C(=O)O)c3)cc2S(=O)(=O)N1C` [Example 90], the EC50 lay within 100 to 1000 nM. The figure for `CN1[C@H](C2CCCCC2)CNc2cc(C34CC(C3)C4)c(-c3ccc(F)c(C(=O)O)c3)cc2S1(=O)=O` [Example 585] is 100 to 1000 nM; for `CC(C)COc1cc2c(cc1-c1ccc(F)c(C(=O)O)c1)S(=O)(=O)N(C)[C@H](C1CCCCC1)CN2c1ccccc1` [Example 358] it is below 100 nM. As to `CN1[C@H](C2CCCCC2)CN(c2ccccc2)c2cc(OC3CCC3)c(-c3ccc(NC(=O)OC4CCC4)c(C(=O)O)c3)cc2S1(=O)=O` [Example 482], the EC50 was below 100 nM. The figure for `CN1[C@H](C2CCCCC2)CN(c2ccccc2)c2cc(Cl)c(-c3ccc4c(c3)S(=O)(=O)NC4=O)cc2S1(=O)=O` [Example 198] is 100 to 1000 nM; for `CC(C)C[C@@H]1CN(c2ccccc2)c2cc(Oc3ccccc3OC(F)(F)F)c(-c3ccc(F)c(C(=O)O)c3)cc2S(=O)(=O)N1C` [Example 437] it is below 100 nM; for `CN1[C@H](C2CCC2)CN(c2ccccc2)c2cc(Cl)c(-c3cccc(C(=O)C(=O)O)c3)cc2S1(=O)=O` [Example 206] it is below 100 nM. The figure for `COCCN(C)c1cc2c(cc1-c1ccc(F)c(C(=O)O)c1)S(=O)(=O)N(C)[C@H](C1CCCCC1)CN2c1ccccc1` [Example 537] is 100 to 1000 nM; for `CC(C)C[C@@H]1CN(C2CC3(CCC3)C2)c2cc(Oc3ccccc3F)c(-c3ccc(F)c(C(=O)O)c3)cc2S(=O)(=O)N1C` [Example 467] it is 100 to 1000 nM. The value for `CO[C@H]1CCN(c2cc3c(cc2-c2ccc(F)c(C(=O)O)c2)S(=O)(=O)N(C)[C@H](C2CCCCC2)CN3c2ccccc2)C1` [Example 532] was below 100 nM; that for `CN1[C@H](C2CCCCC2)CN(c2ccccc2)c2cc(C3COC3)c(-c3ccc(F)c(C(=O)O)c3)cc2S1(=O)=O` [Example 588] was 100 to 1000 nM. For the compound `CN1[C@H](C2CCCCC2)CN(c2ccccc2)c2cc(C3CN(C(=O)OC(C)(C)C)C3)c(-c3ccc(F)c(C(=O)O)c3)cc2S1(=O)=O` [Example 594], the EC50 lay within 100 to 1000 nM. The figure for `COc1ccccc1Oc1cc2c(cc1-c1ccc(F)c(C(=O)O)c1)S(=O)(=O)N(C)[C@H](CC(C)C)CN2c1ccccc1` [Example 428] is below 100 nM; for `CN1[C@H](CN2CCOCC2)CN(c2ccccc2)c2cc(Cl)c(-c3ccc(F)c(C(=O)O)c3)cc2S1(=O)=O` [Example 109] it is above 1000 nM.

For the compound `CC(C)C[C@@H]1CN(c2ccccc2)c2cc(-c3cccc(NC=O)c3O)c(-c3ccc(F)c(C(=O)O)c3)cc2S(=O)(=O)N1C` [Example 577], the half-maximal effective concentration (EC50) was above 1000 nM. The figure for `Cc1sc(-c2cc3c(cc2Cl)N(c2ccccc2)C[C@@H](C2CCCCC2)N(C)S3(=O)=O)nc1C(=O)O` [Example 125] is 100 to 1000 nM; for `CCCCC[C@@H](C)Oc1cc2c(cc1-c1cc(F)c(C(=O)O)s1)S(=O)(=O)N(C)[C@H](C1CCCCC1)CN2c1ccccc1` [Example 491] it is 100 to 1000 nM. The value for `CN1[C@H](C2CCCCC2)CN(c2ccccc2)c2cc(Cl)c(-c3ccc(O)c(C(=O)O)c3)cc2S1(=O)=O` [Example 156, (R)-5-(7-chloro-3-cyclohexyl-2-methyl-1,1-dioxido-5-phenyl-2,3,4,5-tetrahydrobenzo[f][1,2,5]thiadiazepin-8-yl)-2-hydroxybenzoic acid] was below 100 nM; that for `CN1[C@H](COc2ccccc2)CN(c2ccccc2)c2cc(Cl)c(-c3ccc(F)c(C(=O)O)c3)cc2S1(=O)=O` [Example 100, (S)-5-(7-chloro-2-methyl-1,1-dioxido-3-(phenoxymethyl)-5-phenyl-2,3,4,5-tetrahydrobenzo[f][1,2,5]thiadiazepin-8-yl)-2-fluorobenzoic acid] was above 1000 nM; that for `CC(C)C[C@@H]1CN(C(C)C)c2cc(Nc3ccccc3F)c(-c3ccc(F)c(C(=O)O)c3)cc2S(=O)(=O)N1C` [Example 561] was 100 to 1000 nM. The value for `CC[C@@H](C)[C@@H]1CN(c2ccccc2)c2cc(Cl)c(-c3ccc(F)c(C(=O)O)c3)cc2S(=O)(=O)N1C` [Example 68] was below 100 nM; that for `CN(C)c1cc2c(cc1-c1ccc(F)c(C(=O)O)c1)S(=O)(=O)N(C)[C@H](C1CCCCC1)CN2c1ccccc1` [Example 529] was below 100 nM; that for `CN1[C@H](C2CCCCC2)CN(c2ccccc2)c2cc(Cl)c(-c3ccc(NS(=O)(=O)CC4CCC4)c(C(=O)O)c3)cc2S1(=O)=O` [Example 272] was below 100 nM. Consider `CC(C)CC1CN(C2CC2)c2cc(Cl)c(-c3cccc(C(=O)O)c3)cc2S(=O)(=O)N1C` (centres unmarked) [Example 327], for which the EC50 fell in the range of 100 to 1000 nM. `CN1[C@H](C2CCCCC2)CN(c2ccccc2)c2cc(Cl)c(-c3cc(C(=O)O)nn3C)cc2S1(=O)=O` [Example 133, (R)-5-(7-chloro-3-cyclohexyl-2-methyl-1,1-dioxido-5-phenyl-2,3,4,5-tetrahydrobenzo[f][1,2,5]thiadiazepin-8-yl)-1-methyl-1H-pyrazole-3-carboxylic acid]: the EC50 is 100 to 1000 nM. The value for `COc1cc2c(cc1-c1cccc(C(=O)O)c1)S(=O)(=O)N(C)C(C)CN2c1ccccc1` (centres unmarked) [Example 15, 3-(7-methoxy-2,3-dimethyl-1,1-dioxido-5-phenyl-2,3,4,5-tetrahydrobenzo[f][1,2,5]thiadiazepin-8-yl)benzoic acid] was above 1000 nM; that for `CN1[C@H](C2CCCCC2)CN(c2ccccc2)c2cc(Cl)c(-c3cc(C(=O)O)c4cn[nH]c4c3)cc2S1(=O)=O` [Example 208, (R)-6-(7-chloro-3-cyclohexyl-2-methyl-1,1-dioxido-5-phenyl-2,3,4,5-tetrahydrobenzo[f][1,2,5]thiadiazepin-8-yl)-1H-indazole-4-carboxylic acid] was above 1000 nM; that for `CC(C)C[C@@H]1CN(c2ccccc2)c2cc(Oc3ccc(Cl)c(C(F)(F)F)c3)c(-c3ccc(F)c(C(=O)O)c3)cc2S(=O)(=O)N1C` [Example 434] was 100 to 1000 nM. For the compound `CN1[C@H](C2CCCCC2)CN(c2cnc(C(F)(F)F)nc2)c2cc(Cl)c(-c3ccc(F)c(C(=O)O)c3)cc2S1(=O)=O` [Example 288], the EC50 is 100 to 1000 nM.

With `CC(=O)NS(=O)(=O)c1cccc(-c2cc3c(cc2Cl)N(c2ccccc2)C[C@@H](C2CCCCC2)N(C)S3(=O)=O)c1` [Example 222], the EC50 was 100 to 1000 nM. The value for `CN1[C@H](C2CCCCC2)CNc2cc(-c3ccncc3)c(-c3ccc(F)c(C(=O)O)c3)cc2S1(=O)=O` [Example 570] was above 1000 nM; that for `CN1[C@H](C2CCCCC2)CN(c2ccccc2)c2cc(Oc3ccccn3)c(-c3ccc(F)c(C(=O)O)c3)cc2S1(=O)=O` [Example 414] was 100 to 1000 nM.
